The record followed here is patent publication US12378224B2 (Dong-A Socio Holdings Co., Ltd., priority 2016, dated 2025).

One assay has as its target human MER (528-end) (Homo sapiens (Human), UniProt Q12866). The assay can be described thus: HTRF Kinase Activity Biochemical Assay (KinEASE-TK). Particulars: 10 uM ATP. The method in brief:
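Activity read-out is the HTRF ratio (665 nm over 620 nm emission, ×10,000; excitation 340 nm) after 1 h detection with 0.375 nM Eu3+-cryptate anti-TK antibody plus 0.062 uM SA-XL665. Preceding kinase step: human MER (528-end), biotinylated TK substrate, 1 h, room temperature.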
In general terms: TR-FRET usually uses a lanthanide donor and a delayed reading to cut background.

Assay [1] concerns the target BCR fusion to kinase domain of MerTK (Ba/F3-MerTK) (Homo sapiens, UniProt Q12866). The assay can be described thus: In Cell TAM Kinase Assay Using BaF3 Cellular System. The note with it: Ba/F3 BCR-kinase fusion proliferation, 72 hours, Cell Titer Glo; kinase not given; read-out: IC50. The class given is cell-based, murine. An outline of the steps:
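Ba/F3 murine pro-B cells expressing BCR–MerTK kinase-domain fusion (IL-3 independent), seeded at 1,000 cells/well onto compound and grown 72 h. Viability read by CellTiter-Glo 2.0 luminescence after 30 min at room temperature.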
For orientation: ATP-based viability assays read luminescence as a measure of living cells.

Chain of BCR fusion to kinase domain of MerTK (Ba/F3-MerTK) (Q12866 21-999 limits assumed, change not shown): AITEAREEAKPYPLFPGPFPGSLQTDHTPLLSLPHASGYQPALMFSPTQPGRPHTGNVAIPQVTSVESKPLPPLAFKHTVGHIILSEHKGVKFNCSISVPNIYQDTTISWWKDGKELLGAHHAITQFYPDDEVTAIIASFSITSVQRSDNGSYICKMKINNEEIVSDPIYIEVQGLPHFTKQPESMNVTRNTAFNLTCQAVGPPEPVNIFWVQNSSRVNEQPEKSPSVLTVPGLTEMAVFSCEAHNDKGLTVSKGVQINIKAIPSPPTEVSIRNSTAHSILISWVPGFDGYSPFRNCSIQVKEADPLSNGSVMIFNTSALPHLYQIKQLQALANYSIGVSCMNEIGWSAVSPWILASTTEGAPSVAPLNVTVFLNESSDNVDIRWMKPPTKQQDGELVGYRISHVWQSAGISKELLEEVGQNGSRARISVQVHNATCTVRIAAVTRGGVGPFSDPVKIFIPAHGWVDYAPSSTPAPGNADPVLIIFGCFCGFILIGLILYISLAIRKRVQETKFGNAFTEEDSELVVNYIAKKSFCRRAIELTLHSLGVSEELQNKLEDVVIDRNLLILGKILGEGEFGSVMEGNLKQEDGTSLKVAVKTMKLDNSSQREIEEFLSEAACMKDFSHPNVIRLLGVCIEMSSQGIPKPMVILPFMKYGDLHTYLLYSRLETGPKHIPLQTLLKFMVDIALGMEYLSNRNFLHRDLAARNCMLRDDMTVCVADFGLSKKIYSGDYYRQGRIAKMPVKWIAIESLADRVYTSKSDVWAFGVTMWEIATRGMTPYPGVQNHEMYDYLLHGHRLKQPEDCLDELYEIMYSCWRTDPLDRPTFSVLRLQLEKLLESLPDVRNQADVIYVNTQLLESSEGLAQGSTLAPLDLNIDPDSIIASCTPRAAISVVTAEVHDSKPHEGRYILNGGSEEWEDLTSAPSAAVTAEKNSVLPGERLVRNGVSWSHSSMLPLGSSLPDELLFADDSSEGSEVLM
Chain of human MER (528-end) (Q12866 528-999 limits assumed): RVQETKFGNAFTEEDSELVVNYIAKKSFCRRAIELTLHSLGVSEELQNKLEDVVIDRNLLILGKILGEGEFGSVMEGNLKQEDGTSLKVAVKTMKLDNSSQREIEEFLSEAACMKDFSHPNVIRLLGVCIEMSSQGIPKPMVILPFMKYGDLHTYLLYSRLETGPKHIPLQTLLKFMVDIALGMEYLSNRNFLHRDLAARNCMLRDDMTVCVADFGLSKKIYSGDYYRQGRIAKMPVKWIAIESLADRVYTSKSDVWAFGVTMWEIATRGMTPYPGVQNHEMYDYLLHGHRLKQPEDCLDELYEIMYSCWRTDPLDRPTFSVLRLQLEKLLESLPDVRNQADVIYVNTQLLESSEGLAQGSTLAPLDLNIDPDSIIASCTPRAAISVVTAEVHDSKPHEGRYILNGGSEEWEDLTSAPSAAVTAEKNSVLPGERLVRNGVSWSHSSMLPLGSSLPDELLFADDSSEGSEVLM

On to `Nc1ccccc1-c1cnc(N)c(C(=O)N[C@@H]2CCN(C(=O)c3ccc(-c4ccc(F)cc4Cl)cc3)C2)n1` [Example 779, (R)-3-amino-6-(2-aminophenyl)-N-(1-(2′-chloro-4′-fluoro-[1,1′-biphenyl]-4-carbonyl)pyrrolidin-3-yl)pyrazine-2-carboxamide], for which the IC50 was 100 to 1000 nM against human MER (528-end) and greater than 1000 nM in assay [1].

Consider `Nc1ncc(-c2ccc(C(=O)N3CCOCC3)c(Cl)c2)cc1C(=O)N[C@@H]1CCN(C(=O)c2ccc(-c3ccc(F)cc3Cl)cc2)C1` [Example 781, (R)-2-amino-N-(1-(2′-chloro-4′-fluoro-[1,1′-biphenyl]-4-carbonyl)pyrrolidin-3-yl)-5-(3-chloro-4-(morpholine-4-carbonyl)phenyl)nicotinamide], for which the results for the IC50 (at human MER (528-end); in assay [1]) were 10 to 100 nM and greater than 1000 nM, respectively.

For the compound `Cn1cc(-c2cnc(N)c(C(=O)N[C@@H]3CCN(C(=O)c4ccc5cc(C(=O)N6CCN(CCO)CC6)ccc5c4)C3)c2)cn1` [Example 786, (R)-2-amino-N-(1-(6-(4-(2-hydroxyethyl)piperazine-1-carbonyl)-2-naphthoyl)pyrrolidin-3-yl)-5-(1-methyl-1H-pyrazol-4-yl)nicotinamide], the IC50 (against human MER (528-end); in assay [1]) was greater than 1000 nM throughout.

As to `CN(C)C(=O)c1ccc(Oc2ccc(-c3ccc(C(=O)N4CC[C@@H](NC(=O)c5cc(-c6cnn(C)c6)cnc5N)C4)cc3)cc2)cc1` [Example 787, (R)-2-amino-N-(1-(4′-(4-(dimethylcarbamoyl)phenoxy)-[1,1′-biphenyl]-4-carbonyl)pyrrolidin-3-yl)-5-(1-methyl-1H-pyrazol-4-yl)nicotinamide], the IC50 against human MER (528-end) was 10 to 100 nM; in assay [1] it was greater than 1000 nM.

`Cn1cc(-c2cnc(N)c(C(=O)N[C@@H]3CCN(C(=O)c4ccc(-c5ccc(Oc6ccc(C(N)=O)cc6)cc5)cc4)C3)c2)cn1` [Example 788, (R)-2-amino-N-(1-(4′-(4-carbamoylphenoxy)-[1,1′-biphenyl]-4-carbonyl)pyrrolidin-3-yl)-5-(1-methyl-1H-pyrazol-4-yl)nicotinamide]: the results for the IC50 (against human MER (528-end); in assay [1]) were 10 to 100 nM and greater than 1000 nM, respectively.

As to `CN1CCN(Cc2ccc(-c3ccc(C(=O)N4CC[C@@H](Nc5n[nH]c6ncc(-c7cnn(C)c7)cc56)C4)cc3)cc2)CC1` [Example 794, (R)-(3-((5-(1-methyl-1H-pyrazol-4-yl)-1H-pyrazolo[3,4-b]pyridin-3-yl)amino)pyrrolidin-1-yl)(4′-((4-methylpiperazin-1-yl)methyl)-[1,1′-biphenyl]-4-yl)methanone], the IC50 at human MER (528-end) was 10 to 100 nM; in assay [1] it was greater than 1000 nM.

Consider `Cn1cc(-c2cnc(N)c(C(=O)N[C@@H]3CCN(C(=O)c4ccc(-c5ccc(Oc6ccnc(Cl)c6)cc5)cc4)C3)c2)cn1` [Example 795, (R)-2-amino-N-(1-(4′-((2-chloropyridin-4-yl)oxy)-[1,1′-biphenyl]-4-carbonyl)pyrrolidin-3-yl)-5-(1-methyl-1H-pyrazol-4-yl)nicotinamide], for which the IC50 lay in the range of 10 to 100 nM against human MER (528-end) and 500 to 1000 nM in assay [1].

Regarding `Cn1cc(-c2cnc(N)c(C(=O)N[C@@H]3CCN(C(=O)c4ccc(-c5ccc(Oc6ccncc6)cc5)cc4)C3)c2)cn1` [Example 798, (R)-2-amino-5-(1-methyl-1H-pyrazol-4-yl)-N-(1-(4′-(pyridin-4-yloxy)-[1,1′-biphenyl]-4-carbonyl)pyrrolidin-3-yl)nicotinamide], the IC50 was 10 to 100 nM at human MER (528-end) and greater than 1000 nM in assay [1].

As to `Cn1cc(-c2cnc(N)c(C(=O)N[C@@H]3CCN(C(=O)c4ccc(-c5ccc(Oc6cccnc6)cc5)cc4)C3)c2)cn1` [Example 802, (R)-2-amino-5-(1-methyl-1H-pyrazol-4-yl)-N-(1-(4′-(pyridin-3-yloxy)-[1,1′-biphenyl]-4-carbonyl)pyrrolidin-3-yl)nicotinamide], the values for the IC50 (against human MER (528-end); in assay [1]) were 100 to 1000 nM and greater than 1000 nM, respectively.

As for `CN(c1ccc(-c2ccc(C(=O)N3CC[C@@H](NC(=O)c4cc(-c5cnn(C)c5)cnc4N)C3)cc2)cc1)c1ccc([N+](=O)[O-])cc1` [Example 803, (R)-2-amino-N-(1-(4′-(methyl(4-nitrophenyl)amino)-[1,1′-biphenyl]-4-carbonyl)pyrrolidin-3-yl)-5-(1-methyl-1H-pyrazol-4-yl)nicotinamide], the figures for the IC50 (at human MER (528-end); in assay [1]) were 100 to 1000 nM and greater than 1000 nM, respectively.

In the case of `CN(c1ccc(-c2ccc(C(=O)N3CC[C@@H](NC(=O)c4cc(-c5cnn(C)c5)cnc4N)C3)cc2)cc1)c1ccc([N+](=O)[O-])cc1F` [Example 804, (R)-2-amino-N-(1-(4′-((2-fluoro-4-nitrophenyl)(methyl)amino)-[1,1′-biphenyl]-4-carbonyl)pyrrolidin-3-yl)-5-(1-methyl-1H-pyrazol-4-yl)nicotinamide], the results for the IC50 (on human MER (528-end); in assay [1]) were 100 to 1000 nM and greater than 1000 nM, respectively.

As for `CN(c1ccc(-c2ccc(C(=O)N3CC[C@@H](NC(=O)c4cc(-c5cnn(C)c5)cnc4N)C3)cc2)cc1)c1ccc([N+](=O)[O-])cc1Cl` [Example 806, (R)-2-amino-N-(1-(4′-((2-chloro-4-nitrophenyl)(methyl)amino)-[1,1′-biphenyl]-4-carbonyl)pyrrolidin-3-yl)-5-(1-methyl-1H-pyrazol-4-yl)nicotinamide], the IC50 (on human MER (528-end); in assay [1]) was greater than 1000 nM throughout.

On to `Cn1cc(-c2cnc(N)c(C(=O)N[C@@H]3CCN(C(=O)c4ccc(-c5ccc(Oc6ccc(O)cc6)c(Cl)c5)cc4)C3)c2)cn1` [Example 808, (R)-2-amino-N-(1-(3′-chloro-4′-(4-hydroxyphenoxy)-[1,1′-biphenyl]-4-carbonyl)pyrrolidin-3-yl)-5-(1-methyl-1H-pyrazol-4-yl)nicotinamide], for which the IC50 fell in the range of 10 to 100 nM at human MER (528-end) and 100 to 500 nM in assay [1].

`CN1CCC(Oc2ccc(-c3ccc(C(=O)N4CC[C@@H](NC(=O)c5cc(-c6cnn(C)c6)cnc5N)C4)cc3)cc2)CC1` [Example 809, (R)-2-amino-5-(1-methyl-1H-pyrazol-4-yl)-N-(1-(4′-((1-methylpiperidin-4-yl)oxy)-[1,1′-biphenyl]-4-carbonyl)pyrrolidin-3-yl)nicotinamide]: the IC50 was 10 to 100 nM against human MER (528-end) and greater than 1000 nM in assay [1].

Consider `Cn1cc(-c2cnc(N)c(C(=O)N[C@@H]3CCN(C(=O)c4ccc(-c5ccc(Oc6ccc(C=O)cc6)cc5)cc4)C3)c2)cn1` [Example 811, (R)-2-amino-N-(1-(4′-(4-formylphenoxy)-[1,1′-biphenyl]-4-carbonyl)pyrrolidin-3-yl)-5-(1-methyl-1H-pyrazol-4-yl)nicotinamide], for which the IC50 was 10 to 100 nM against human MER (528-end) and greater than 1000 nM in assay [1].

Consider `Cn1cc(-c2cnc(N)c(C(=O)N[C@@H]3CCN(C(=O)c4ccc(-c5ccc(Oc6ccc(C(=O)O)cc6)cc5)cc4)C3)c2)cn1` [Example 812, (R)-4-((4′-(3-(2-amino-5-(1-methyl-1H-pyrazol-4-yl)nicotinamido)pyrrolidine-1-carbonyl)-[1,1′-biphenyl]-4-yl)oxy)benzoic acid], for which the IC50 at human MER (528-end) was 10 to 100 nM; in assay [1], greater than 1000 nM.

`Cn1cc(-c2cnc(N)c(C(=O)N[C@@H]3CCN(C(=O)c4ccc5cc(NC6CCNCC6)ccc5c4)C3)c2)cn1` [Example 816, (R)-2-amino-5-(1-methyl-1H-pyrazol-4-yl)-N-(1-(6-(piperidin-4-ylamino)-2-naphthoyl)pyrrolidin-3-yl)nicotinamide]: the IC50 on human MER (528-end) is 100 to 1000 nM; in assay [1] it was greater than 1000 nM.

On to `Cn1cc(-c2cnc(N)c(C(=O)N[C@@H]3CCN(C(=O)c4ccc5cc(NC6CCN(CCO)CC6)ccc5c4)C3)c2)cn1` [Example 817, (R)-2-amino-N-(1-(6-((1-(2-hydroxyethyl)piperidin-4-yl)amino)-2-naphthoyl)pyrrolidin-3-yl)-5-(1-methyl-1H-pyrazol-4-yl)nicotinamide], for which the IC50 against human MER (528-end) is 100 to 1000 nM; in assay [1], greater than 1000 nM.

Turning to `CN(c1ccc2cc(C(=O)N3CC[C@@H](NC(=O)c4cc(-c5cnn(C)c5)cnc4N)C3)ccc2c1)C1CCNCC1` [Example 818, (R)-2-amino-N-(1-(6-(methyl(piperidin-4-yl)amino)-2-naphthoyl)pyrrolidin-3-yl)-5-(1-methyl-1H-pyrazol-4-yl)nicotinamide], the 50% inhibitory concentration (IC50) against human MER (528-end) was 10 to 100 nM; in assay [1], greater than 1000 nM.

As to `Cn1cc(-c2cnc(N)c(C(=O)N[C@@H]3CCN(C(=O)c4ccc(-c5ccc(CC6CCN(CCO)CC6)cc5)cc4)C3)c2)cn1` [Example 819, (R)-2-amino-N-(1-(4′-((1-(2-hydroxyethyl)piperidin-4-yl)methyl)-[1,1′-biphenyl]-4-carbonyl)pyrrolidin-3-yl)-5-(1-methyl-1H-pyrazol-4-yl)nicotinamide], the IC50 against human MER (528-end) was 10 to 100 nM; in assay [1] it was greater than 1000 nM.

As to `CN(c1ccc2cc(C(=O)N3CC[C@@H](NC(=O)c4cc(-c5cnn(C)c5)cnc4N)C3)ccc2c1)C1CCN(CCO)CC1` [Example 820, (R)-2-amino-N-(1-(6-((1-(2-hydroxyethyl)piperidin-4-yl)(methyl)amino)-2-naphthoyl)pyrrolidin-3-yl)-5-(1-methyl-1H-pyrazol-4-yl)nicotinamide], the IC50 on human MER (528-end) lay within 10 to 100 nM; in assay [1] it was 100 to 500 nM.

`CC(/C=C/c1ccc(C(=O)N2CC[C@@H](NC(=O)c3cc(-c4cnn(C)c4)cnc3N)C2)cc1)N1CCN(CCO)CC1` (stereo partly drawn) [Example 823, 2-amino-N-((3R)-1-(4-((E)-3-(4-(2-hydroxyethyl)piperazin-1-yl)but-1-en-1-yl)benzoyl)pyrrolidin-3-yl)-5-(1-methyl-1H-pyrazol-4-yl)nicotinamide]: the IC50 on human MER (528-end) is 10 to 100 nM; in assay [1] it was greater than 1000 nM.

The term IC50 denotes the midpoint of a concentration-inhibition curve.
